Test system: T1, chitinase 1198 Truncated
T1 construct: gene CT01GL001198; perhaps lacks disordered N-terminus (residues 1-201; approx. 63 kD proteolysis bands mentioned)
Assay: p-nitrophenol release, absorbance at […] nm
Assay type: biochemical, Chitinibacter tainanensis
Conditions: standard assay 50 mM Tris-HCl pH 7.0, substrate 5-300 μM; temperature of kinetic run not stated

CC(=O)N[C@H]1[C@H](Oc2ccc([N+](=O)[O-])cc2)O[C@H](CO)[C@@H](O[C@@H]2O[C@H](CO)[C@@H](O)[C@H](O)[C@H]2NC(C)=O)[C@@H]1O [pNP-(GlcNAc)2]
Km: 58.3 ± 11 µM

From PMC7463862, “Gene Cloning, Characterization, and Molecular Simulations of a Novel Recombinant Chitinase from Chitinibacter Tainanensis CT01 Appropriate for Chitin Enzymatic Hydrolysis” (Polymers, 2020)
